{"source": "paper PMC8068801", "about": "“Novel Benzenesulfonate Scaffolds with a High Anticancer Activity and G2/M Cell Cycle Arrest” (Cancers, 2021)", "key": {"purified bovine tubulin": {"tested_on": "purified bovine tubulin", "test": "In vitro tubulin polymerization assay", "assay_type": "biochemical", "conditions": "10 µM; turbidity at 350 nm, maximum absorbance", "method": "The effect of small-molecule compounds on tubulin polymerization was monitored using an In Vitro Tubulin Polymerization Kit (≥99% Pure Bovine Tubulin) (Millipore) following the manufacturer’s protocol. Briefly, the tested compounds, BS1 and BS4, as well as reference drugs, paclitaxel (enhancer of polymerization) and nocodazole (inhibitor of polymerization) at a concentration of 10 µM were mixed with purified bovine tubulin (60 μM) and polymerization buffer with GTP (1 mM) on 96-well plate on ice. Then, the plate was transferred into the multi-plate reader (Synergy 4) chamber (heated to 37 °C) and measured the turbidity variation every 30 s at 350 nm during 90 min. The experiments were performed three times."}, "U-251 cells [1]": {"tested_on": "U-251 cells", "test": "Annexin V binding (apoptosis) assay, U-251", "assay_type": "cell-based, human", "conditions": "U-251, 6 μM, 48 h", "method": "The K562, U-251 and NHDF cells were seeded in 3 cm Petri dishes (Nunc) at a density of 250,000 cells per well and incubated at 37 °C for 24 h. Then, the medium was removed, and freshly prepared solutions of the tested compounds, BS1 and BS4 (two to three times the IC50 value), were added. After a 48 h incubation, the assays were performed using a FITC Annexin V Apoptosis Detection KIT with 7-AAD (Bio-Legend) according to the manufacturer’s instructions. Briefly, the cells were collected, washed twice with cold PBS and centrifuged at 300 g for 5 min. Next, the cells were resuspended in a 100 µL Annexin V Binding Buffer and incubated for 15 min at room temperature in the dark with 5 µL of FITC Annexin V and 5 µL 7-AAD Viability Staining Solution. After immunostaining, the number of events for live, early and late apoptotic cells were determined using a Muse Cell Analyzer. The experiments were performed at least four times."}, "K562 cells [2]": {"tested_on": "K562 cells", "test": "Autophagy assay (Muse LC3-antibody kit), K562", "assay_type": "cell-based, human", "conditions": "K562, 0.5 μM, vs control", "method": "(§1) The K562 and U-251 cells were seeded in 96-well plates (Nunc) and incubated at 37 °C for 24 h. The density of the cells was 20,000 cells per well (for the 24 h assay) and 10,000 per well (for the 48 h assay). […] After treatment, the assays were performed using a Muse™ Autophagy LC3-antibody based kit (Millipore) according to the manufacturer’s instructions. Briefly, the cells were collected, washed with cold HPBS and centrifuged at 300 g for 5 min. […] The samples were incubated on ice for 30 min in the dark. After incubation, the cells were centrifuged and resuspended in 200 μL of a 1X Assay Buffer. Then, the samples were directly processed to analyze the autophagy induction using a Muse Cell Analyzer. The autophagy induction ratio was calculated on the basis of the ratio between the target sample fluorescence versus the control sample. The experiments were performed at least three times."}, "K562 cells [3]": {"tested_on": "K562 cells", "test": "Immunoblotting with densitometry, K562", "assay_type": "cell-based, human", "conditions": "24 h; for PARP/Reference 89 kDa, densitometric intensity ratio / caspase-9/Reference 37-35 kDa, densitometric intensity ratio: control 0.167; for AIF/Reference 67 kDa, densitometric intensity ratio / BID/Reference 22 kDa, densitometric intensity ratio / PARP/Reference 116 kDa, densitometric intensity ratio / caspase-9/Reference 47 kDa, densitometric intensity ratio / cdc2/Reference 34 kDa, densitometric intensity ratio / cyclin E1/Reference 48 kDa, densitometric intensity ratio: control 1.000", "method": "The K562 and U-251 cells were seeded in 3 cm Petri dishes (Nunc) at a density of 500,000 cells per well and incubated overnight. […] Next, the cell pellets were resuspended in an RIPA buffer containing a Halt Protease Inhibitor Cocktail and a Halt Phosphatase Inhibitor Cocktail along with 0.5 M EDTA (all from Thermo Scientific, Waltham, MA, USA) and lysed on ice for 20 min. Then, the obtained lysates were sonicated and centrifuged at 10,000 rpm for 10 min at 4 °C. The supernatants were collected for further analysis. The protein concentration was measured using a Micro BCA™ Protein Assay Kit (Thermo Scientific) according to the manufacturer’s instructions. Equal amounts of the proteins (16 μg) were electrophoresed on SDS-Page gels and transferred onto nitrocellulose membranes. The membranes were blocked in 5% non-fat milk prepared in TPBS (PBS containing 0.1% Tween-20) for 1 h. After blocking, the membranes were incubated with the specific primary antibodies (all from Cell Signaling) at a 1:1000 dilution—cyclin E, cdc2, PARP, AIF, BID, p53, p21^Waf1/Cip1, HIF-1α, cathepsin B and caspase-9—and at a 1:2000 dilution for the reference proteins—vinculin, β-actin and GAPDH—overnight at 4 °C. The next day, the membranes were washed in TPBS and incubated with horseradish peroxidase (HRP)-conjugated secondary antibodies for 1 h at room temperature. Lastly, the membranes were washed in TPBS and incubated with a SuperSignal™ West Pico Chemiluminescent Substrate (Thermo Scientific). The chemiluminescence signals were captured using a ChemiDoc™ XRS + System (Biorad). The experiments were performed at least four to five times. The densitometric analysis was conducted using ImageJ software (Wayne Rasband, National Institutes of Health, Bethesda, MD, USA).\nThe band intensity of tested proteins (p53, cyclin E1, cdc2, p21, HIF-1α, cathepsin b, PARP, caspase-9, BID, AIF) were analyzed by densitometry readings/intensity ratio, using ImageJ software (NIH) and were normalized to the corresponding reference proteins (GAPDH, vinculin or β-actin) value.\nThe densitometric readings/intensity ratio data from four/five independent experiments (compared to control): […]\np53/ Refer- p21/ Refer- cdc2/ Refer- Cyclin E1/ HIF-1α/ Cathepsin b/Reference ence ence ence Reference Reference\nPARP/Reference BID/ Reference Caspase-9/Reference […]\ncdc2/ Reference cyclin E1/ Reference AIF/ Reference BID/ Reference"}, "U-251 cells [4]": {"tested_on": "U-251 cells", "test": "Autophagy assay (Muse LC3-antibody kit), U-251", "assay_type": "cell-based, human", "conditions": "U-251, 4 μM, 24 h; vs control", "method": "as §1"}}, "data": [{"smiles": "COc1ccccc1/C=C/c1nc(OS(=O)(=O)c2ccc3c(c2)OCO3)c2ccccc2n1", "note": "[BS1, 2-((E)-2-(2-methoxyphenyl)ethenyl)quinazolin-4-yl 1,3-benzodioxole-5-sulfonate]", "values": [{"measurement": "Enhancement of tubulin polymerization, increase compared to control", "setting": "purified bovine tubulin", "result": "about 47%"}, {"measurement": "Early apoptotic cells, mean ± SD", "setting": "U-251 cells [1]", "result": 39.80, "unit": "%"}, {"measurement": "Late apoptotic cells, mean ± SD", "setting": "U-251 cells [1]", "result": 11.40, "unit": "%"}, {"measurement": "Autophagy induction ratio", "setting": "K562 cells [2]; 24 h", "result": 2.26}, {"measurement": "Autophagy induction ratio", "setting": "K562 cells [2]; 48 h", "result": 1.96}, {"measurement": "Cleavage caspase-9 proteins (Western blot)", "setting": "K562 cells [3]; K562, 0.35 µM", "result": "more than six-fold increase"}, {"measurement": "PARP/Reference 89 kDa, densitometric intensity ratio", "setting": "K562 cells [3]; K562, 0.35µM", "result": 2.111}, {"measurement": "caspase-9/Reference 37-35 kDa, densitometric intensity ratio", "setting": "K562 cells [3]; K562, 0.35µM", "result": 1.287}, {"measurement": "AIF/Reference 67 kDa, densitometric intensity ratio", "setting": "K562 cells [3]; K562, 0.35µM", "result": 3.809}, {"measurement": "BID/Reference 22 kDa, densitometric intensity ratio", "setting": "K562 cells [3]; K562, 0.35µM", "result": 1.049}, {"measurement": "PARP/Reference 116 kDa, densitometric intensity ratio", "setting": "K562 cells [3]; K562, 0.35µM", "result": 1.793}, {"measurement": "caspase-9/Reference 47 kDa, densitometric intensity ratio", "setting": "K562 cells [3]; K562, 0.35µM", "result": 1.109}, {"measurement": "cdc2/Reference 34 kDa, densitometric intensity ratio", "setting": "K562 cells [3]; K562, 0.35µM", "result": 1.234}, {"measurement": "cyclin E1/Reference 48 kDa, densitometric intensity ratio", "setting": "K562 cells [3]; K562, 0.35µM", "result": 1.273}, {"measurement": "PARP/Reference 89 kDa, densitometric intensity ratio", "setting": "K562 cells [3]; K562, 0.5µM", "result": 2.156}, {"measurement": "caspase-9/Reference 37-35 kDa, densitometric intensity ratio", "setting": "K562 cells [3]; K562, 0.5µM", "result": 1.368}, {"measurement": "AIF/Reference 67 kDa, densitometric intensity ratio", "setting": "K562 cells [3]; K562, 0.5µM", "result": 2.737}, {"measurement": "BID/Reference 22 kDa, densitometric intensity ratio", "setting": "K562 cells [3]; K562, 0.5µM", "result": 0.695}, {"measurement": "PARP/Reference 116 kDa, densitometric intensity ratio", "setting": "K562 cells [3]; K562, 0.5µM", "result": 1.646}, {"measurement": "caspase-9/Reference 47 kDa, densitometric intensity ratio", "setting": "K562 cells [3]; K562, 0.5µM", "result": 1.627}, {"measurement": "cdc2/Reference 34 kDa, densitometric intensity ratio", "setting": "K562 cells [3]; K562, 0.5µM", "result": 1.122}, {"measurement": "cyclin E1/Reference 48 kDa, densitometric intensity ratio", "setting": "K562 cells [3]; K562, 0.5µM", "result": 1.110}]}, {"smiles": "COc1ccccc1/C=C/c1nc(OS(=O)(=O)c2cc3c(cc2Br)OCO3)c2ccccc2n1", "note": "[BS2, 2-((E)-2-(2-methoxyphenyl)ethenyl)quinazolin-4-yl 6-bromo-1,3-benzodioxole-5-sulfonate]", "values": [{"measurement": "PARP/Reference 89 kDa, densitometric intensity ratio", "setting": "K562 cells [3]; K562, 0.35µM", "result": 0.494}, {"measurement": "caspase-9/Reference 37-35 kDa, densitometric intensity ratio", "setting": "K562 cells [3]; K562, 0.35µM", "result": 1.268}, {"measurement": "AIF/Reference 67 kDa, densitometric intensity ratio", "setting": "K562 cells [3]; K562, 0.35µM", "result": 4.141}, {"measurement": "BID/Reference 22 kDa, densitometric intensity ratio", "setting": "K562 cells [3]; K562, 0.35µM", "result": 0.965}, {"measurement": "PARP/Reference 116 kDa, densitometric intensity ratio", "setting": "K562 cells [3]; K562, 0.35µM", "result": 1.556}, {"measurement": "caspase-9/Reference 47 kDa, densitometric intensity ratio", "setting": "K562 cells [3]; K562, 0.35µM", "result": 1.108}, {"measurement": "cdc2/Reference 34 kDa, densitometric intensity ratio", "setting": "K562 cells [3]; K562, 0.35µM", "result": 1.338}, {"measurement": "cyclin E1/Reference 48 kDa, densitometric intensity ratio", "setting": "K562 cells [3]; K562, 0.35µM", "result": 1.640}, {"measurement": "PARP/Reference 89 kDa, densitometric intensity ratio", "setting": "K562 cells [3]; K562, 0.5µM", "result": 0.811}, {"measurement": "caspase-9/Reference 37-35 kDa, densitometric intensity ratio", "setting": "K562 cells [3]; K562, 0.5µM", "result": 1.113}, {"measurement": "AIF/Reference 67 kDa, densitometric intensity ratio", "setting": "K562 cells [3]; K562, 0.5µM", "result": 4.160}, {"measurement": "BID/Reference 22 kDa, densitometric intensity ratio", "setting": "K562 cells [3]; K562, 0.5µM", "result": 0.762}, {"measurement": "PARP/Reference 116 kDa, densitometric intensity ratio", "setting": "K562 cells [3]; K562, 0.5µM", "result": 1.665}, {"measurement": "caspase-9/Reference 47 kDa, densitometric intensity ratio", "setting": "K562 cells [3]; K562, 0.5µM", "result": 1.104}, {"measurement": "cdc2/Reference 34 kDa, densitometric intensity ratio", "setting": "K562 cells [3]; K562, 0.5µM", "result": 1.206}, {"measurement": "cyclin E1/Reference 48 kDa, densitometric intensity ratio", "setting": "K562 cells [3]; K562, 0.5µM", "result": 1.270}]}, {"smiles": "COc1ccccc1/C=C/c1nc(OS(=O)(=O)c2ccc(C)cc2)c2ccccc2n1", "note": "[BS4, 2-((E)-2-(2-methoxyphenyl)ethenyl)quinazolin-4-yl 4-methylbenzenesulfonate]", "values": [{"measurement": "Autophagy induction ratio", "setting": "U-251 cells [4]", "result": 5.03}]}]}
